One assay concerns Haemophilus influenzae. The assay is described as follows: In vitro antimicrobial activity against Haemophilus influenzae. The format is functional.
The subject of the next assay is Staphylococcus aureus. In words: In vitro antimicrobial activity against Staphylococcus aureus X1. The format is functional.
In assay [1] the test system is Staphylococcus epidermidis. The assay is described as follows: In vitro antimicrobial activity against Staphylococcus epidermidis EPI1. The format is functional.
Assay [2] deals with Streptococcus pyogenes. In words: In vitro antimicrobial activity against Streptococcus pyogenes C203. The format is functional.
In assay [3] the test system is Streptococcus pyogenes. In words: In vivo effective dose against experimental infections in rodent caused by Streptococcus pyogenes C203 when administered orally. The format is functional. To be noted: po.
For assay [4], the system named is Streptococcus pyogenes. In words: In vivo effective dose against experimental infections in rodent caused by Streptococcus pyogenes C203 when administered sc. The format is functional.
The test system of another assay is Streptococcus pneumoniae. The assay is described as follows: In vitro antimicrobial activity against Streptococcus pneumoniae. The format is functional.
The subject of the next assay is Enterococcus faecium. The assay is described as follows: In vitro antimicrobial activity against Streptococcus faecium X66. The format is functional, streptococcus fae-cium.

In brackets after ≈: the same amount, converted by molar mass. Where only a bound is given, the exact number is not on record here.

As for `CCOC(C[C@H]1C[C@@H](C)C(=O)/C=C/C(C)=C/[C@H](CO[C@@H]2O[C@H](C)[C@@H](O)[C@@H](OC)[C@H]2OC)[C@@H](CC)OC(=O)C[C@@H](O)[C@H](C)[C@H]1O[C@@H]1O[C@H](C)[C@@H](O)[C@H](N(C)C)[C@H]1O)OCC`, the MIC in the assay on Haemophilus influenzae came to 16 µg/mL (≈ 18.9 µM); with Staphylococcus aureus, 0.5 µg/mL (≈ 0.591 µM); in assay [1], 1 µg/mL (≈ 1.18 µM); in the assay on Streptococcus pyogenes [2], 0.5 µg/mL (≈ 0.591 µM); with Streptococcus pneumoniae, 4 µg/mL (≈ 4.73 µM); against Enterococcus faecium, 8 µg/mL (≈ 9.46 µM). For the same compound, the figures for the ED50 in the assay on Streptococcus pyogenes [3] and in the assay on Streptococcus pyogenes [4] were 35 mg/kg and 3.4 mg/kg, respectively.
Regarding `CC[C@H]1OC(=O)C[C@@H](O)[C@H](C)[C@@H](O[C@@H]2O[C@H](C)[C@@H](O)[C@H](N(C)C)[C@H]2O)[C@@H](CCOS(=O)c2ccccc2)C[C@@H](C)C(=O)/C=C/C(C)=C/[C@@H]1CO[C@@H]1O[C@H](C)[C@@H](O)[C@@H](OC)[C@H]1OC` (stereo not given in full), the MIC turned out to be 8 µg/mL (≈ 8.91 µM) with Haemophilus influenzae; 0.25 µg/mL (≈ 0.278 µM) in the assay with Staphylococcus aureus; 0.25 µg/mL (≈ 0.278 µM) in assay [1]; 0.25 µg/mL (≈ 0.278 µM) in the assay with Streptococcus pyogenes [2]; 4 µg/mL (≈ 4.45 µM) against Enterococcus faecium. Besides, the ED50 (as a rule, the dose at which the effect has come halfway, by size or by number of responders) was 45 mg/kg in the assay on Streptococcus pyogenes [3] and 5 mg/kg in the assay on Streptococcus pyogenes [4].
As for `CC[C@H]1OC(=O)C[C@@H](O)[C@H](C)[C@@H](O[C@@H]2O[C@H](C)[C@@H](O[C@H]3C[C@@](C)(O)[C@@H](O)[C@H](C)O3)[C@H](N(C)C)[C@H]2O)[C@@H](CCN2CCCCCCC2)C[C@@H](C)C(=O)/C=C/C(C)=C/[C@@H]1CO[C@@H]1O[C@H](C)[C@@H](O)[C@@H](OC)[C@H]1OC`, the MIC with Haemophilus influenzae is 128 µg/mL (≈ 126 µM); against Staphylococcus aureus it was 4 µg/mL (≈ 3.95 µM); in assay [1], 4 µg/mL (≈ 3.95 µM); with Streptococcus pyogenes [2], 2 µg/mL (≈ 1.97 µM); with Streptococcus pneumoniae, 8 µg/mL (≈ 7.89 µM); with Enterococcus faecium, over 128 µg/mL. Further, the figures for the median effective dose (ED50) in the assay on Streptococcus pyogenes [3] and with Streptococcus pyogenes [4] were 44 mg/kg and over 10 mg/kg, respectively.
Regarding `CC[C@H]1OC(=O)C[C@@H](O)[C@H](C)[C@@H](O[C@@H]2O[C@H](C)[C@@H](O)[C@H](N(C)C)[C@H]2O)[C@@H](CC=O)C[C@@H](C)C(=O)/C=C/C(C)=C/[C@@H]1CO[C@@H]1O[C@H](C)[C@@H](O)[C@@H](O)[C@H]1OC`, the MIC with Haemophilus influenzae was determined as 8 µg/mL (≈ 10.6 µM); against Staphylococcus aureus, 2 µg/mL (≈ 2.64 µM); in assay [1] it was 2 µg/mL (≈ 2.64 µM); in the assay with Streptococcus pyogenes [2] it was 0.25 µg/mL (≈ 0.33 µM); against Streptococcus pneumoniae, 0.25 µg/mL (≈ 0.33 µM); in the assay with Enterococcus faecium, 4 µg/mL (≈ 5.28 µM). For the same compound, the ED50 amounted to 81 mg/kg in the assay with Streptococcus pyogenes [3] and 1.8 mg/kg in the assay on Streptococcus pyogenes [4].
For the compound `CC[C@H]1OC(=O)C[C@@H](O)[C@H](C)[C@@H](O[C@@H]2O[C@H](C)[C@@H](O)[C@H](N(C)C)[C@H]2O)[C@@H](CCI)C[C@@H](C)C(=O)/C=C/C(C)=C/[C@@H]1CO[C@@H]1O[C@H](C)[C@@H](O)[C@@H](OC)[C@H]1OC`, the MIC against Haemophilus influenzae is 32 µg/mL (≈ 36.2 µM); against Staphylococcus aureus, 0.5 µg/mL (≈ 0.566 µM); in assay [1], 0.25 µg/mL (≈ 0.283 µM); with Streptococcus pyogenes [2], 0.5 µg/mL (≈ 0.566 µM); against Streptococcus pneumoniae, 4 µg/mL (≈ 4.53 µM); against Enterococcus faecium, 16 µg/mL (≈ 18.1 µM). The ED50 came out at 19 mg/kg in the assay with Streptococcus pyogenes [3] and 4.3 mg/kg in the assay with Streptococcus pyogenes [4].
With `CC[C@H]1OC(=O)C[C@@H](O)[C@H](C)[C@@H](O[C@@H]2O[C@H](C)[C@@H](O)[C@H](N(C)C)[C@H]2O)[C@@H](CCSc2nnnn2C)C[C@@H](C)C(=O)/C=C/C(C)=C/[C@@H]1CO[C@@H]1O[C@H](C)[C@@H](O)[C@@H](OC)[C@H]1OC`, the MIC worked out at 0.5 µg/mL (≈ 0.573 µM) against Staphylococcus aureus; 0.25 µg/mL (≈ 0.287 µM) in assay [1]; 0.25 µg/mL (≈ 0.287 µM) in the assay with Streptococcus pyogenes [2]; 2 µg/mL (≈ 2.29 µM) in the assay on Streptococcus pneumoniae; 16 µg/mL (≈ 18.3 µM) against Enterococcus faecium. Besides, the 50% effect level in the assay on Streptococcus pyogenes [3] (ED50) was put at a dose of 50 mg/kg.
Turning to `CC[C@H]1OC(=O)C[C@@H](O)[C@H](C)[C@@H](O[C@@H]2O[C@H](C)[C@@H](O)[C@H](N(C)C)[C@H]2O)[C@@H](CCOc2ccc([N+](=O)[O-])cc2)C[C@@H](C)C(=O)/C=C/C(C)=C/[C@@H]1CO[C@@H]1O[C@H](C)[C@@H](O)[C@@H](OC)[C@H]1OC`, the MIC with Haemophilus influenzae came out at 16 µg/mL (≈ 17.9 µM); against Staphylococcus aureus it was 0.5 µg/mL (≈ 0.559 µM); in assay [1], 0.5 µg/mL (≈ 0.559 µM); against Streptococcus pyogenes [2] it was 1 µg/mL (≈ 1.12 µM); in the assay with Streptococcus pneumoniae it was 1 µg/mL (≈ 1.12 µM); against Enterococcus faecium it was 4 µg/mL (≈ 4.47 µM). This compound also registered a 50% effective dose (ED50) with Streptococcus pyogenes [3] of 5 mg/kg.
Consider `CC[C@H]1OC(=O)C[C@@H](O)[C@H](C)[C@@H](O[C@@H]2O[C@H](C)[C@@H](O[C@H]3C[C@@](C)(O)[C@@H](O)[C@H](C)O3)[C@H](N(C)C)[C@H]2O)[C@@H](CCSc2nnnn2C)C[C@@H](C)C(=O)/C=C/C(C)=C/[C@@H]1CO[C@@H]1O[C@H](C)[C@@H](O)[C@@H](OC)[C@H]1OC`, for which the MIC against Haemophilus influenzae was over 128 µg/mL; against Staphylococcus aureus, 0.5 µg/mL (≈ 0.492 µM); in assay [1] it was 1 µg/mL (≈ 0.984 µM); in the assay on Streptococcus pyogenes [2], 1 µg/mL (≈ 0.984 µM); in the assay with Streptococcus pneumoniae, 32 µg/mL (≈ 31.5 µM); against Enterococcus faecium, 128 µg/mL (≈ 126 µM). The compound also returned an ED50 in the assay with Streptococcus pyogenes [4] of over 6.3 mg/kg.
On to `CCOC(=O)c1ccc(OCC[C@H]2C[C@@H](C)C(=O)/C=C/C(C)=C/[C@H](CO[C@@H]3O[C@H](C)[C@@H](O)[C@@H](OC)[C@H]3OC)[C@@H](CC)OC(=O)C[C@@H](O)[C@H](C)[C@H]2O[C@@H]2O[C@H](C)[C@@H](O)[C@H](N(C)C)[C@H]2O)cc1`, for which the MIC in the assay on Staphylococcus aureus was 0.5 µg/mL (≈ 0.542 µM); in assay [1], 0.5 µg/mL (≈ 0.542 µM); with Streptococcus pyogenes [2], 0.5 µg/mL (≈ 0.542 µM); against Streptococcus pneumoniae it was 1 µg/mL (≈ 1.08 µM); against Enterococcus faecium, 8 µg/mL (≈ 8.68 µM). Besides, the ED50 in the assay on Streptococcus pyogenes [4] was over 10 mg/kg.

The values above are taken from ChEMBL document CHEMBL1124186, “Synthesis and evaluation of tylosin-related macrolides modified at the aldehyde function: a new series of orally effective antibiotics” (1988).
